The results in this text go back to paper PMC12822916 (Cell reports, 2025).

The test has as its target eIF3e (Homo sapiens, UniProt P60228). The experiment in a line: isothermal dose-response fingerprint CETSA, western blot. Conditions: MCF7-SIX1 lysate, 10 min at room temperature with compound, heated at 53 °C for 3 min; pH 7.5 Tris, 100 mM NaCl, 1 mM DTT. The test is classed as biochemical. (In general: In western blotting, separated proteins are transferred to a membrane and probed.)

The structures appear in SMILES notation.

Chain of eIF3e (P60228 2-445): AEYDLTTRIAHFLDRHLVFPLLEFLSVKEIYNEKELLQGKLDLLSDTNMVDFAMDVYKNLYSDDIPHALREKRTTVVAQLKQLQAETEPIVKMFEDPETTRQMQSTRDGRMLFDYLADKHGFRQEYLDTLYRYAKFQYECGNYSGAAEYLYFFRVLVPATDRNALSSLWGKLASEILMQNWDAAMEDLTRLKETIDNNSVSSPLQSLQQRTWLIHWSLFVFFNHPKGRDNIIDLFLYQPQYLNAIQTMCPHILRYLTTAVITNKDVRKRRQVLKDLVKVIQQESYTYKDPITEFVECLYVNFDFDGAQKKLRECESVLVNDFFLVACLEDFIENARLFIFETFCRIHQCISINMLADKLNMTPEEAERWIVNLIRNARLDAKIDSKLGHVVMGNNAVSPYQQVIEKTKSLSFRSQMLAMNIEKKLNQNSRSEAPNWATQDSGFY

In general, EC50 refers to the concentration needed to bring the measured effect to its halfway point. Consider `COc1ccc(NC(=O)c2cccc(-n3cccc3)c2)cc1S(=O)(=O)N1CCOCC1` [compound 8430, NCGC00378430], for which the EC50 was found to be 13.6 µM.
